Bounds are passed on as bounds.

The values that follow come from a melting point compilation (Tetko et al.; mined from patent text by program, amines drawn as free bases though some values may be those of a salt).

What is called melting point is the temperature, or range, at which the solid turns liquid. As for `Cc1nc(N2CCN(Cc3ccccc3)C2=N)sc1C(=O)NCc1ccc(F)c(F)c1`, the melting point was 140 to 142 °C.

The compound `CCCc1c(OCCCS(=O)(=O)c2c(C(C)C)nn3ccccc23)ccc(C(C)=O)c1O` returned a melting point of 170 °C. For `O=C(NCC12CC3CC(CC(C3)C1)C2)c1cc(-c2ccccc2C(=O)O)ccc1Cl` the value was 228 to 230 °C.

For the compound `CC1(C)OC(c2ccc(S(N)(=O)=O)c(Br)c2)=C(c2ccccc2)C1=O`, the melting point lay within 128 to 132 °C. Then `N#Cc1ccccc1Cn1cc(-c2ccnc(N)c2)n(-c2ccc(F)cc2)c1=O`, with 182 to 183 °C; and `O=[N+]([O-])c1cccc(C=NC2CCOc3ccccc32)c1` (stereo not drawn), with 117 to 118 °C; and `CC(C)Sc1cc2c(cc1Cl)N=C(C(Cl)Cl)NS2(=O)=O`, with 287 to 289 °C.

Turning to `CC(=O)CC(=S)Nc1ccccc1`, the melting point was determined as 125 °C.

The compound `CCCOc1ccc2c(c1)C(=O)CCO2` gave a melting point of 50 to 52 °C.

The compound `CC(=O)SCC(Cc1ccccc1)C(=O)NN1CCCCCC1` (stereo not drawn) showed a melting point of 126 °C. For `CC(C)CN(Cc1nc(-c2ncn3c2CN(C)C(=O)c2c(Cl)cccc2-3)no1)CC(C)C` the value was 125 to 128 °C. Then `CC(=O)NCc1cc2n(n1)-c1ccc([N+](=O)[O-])cc1C(c1ccccc1)=NC2`, with 208 to 211 °C; and `COc1ccc(C=O)cc1OCc1ccc2ccccc2c1`, with 80 °C. Then `C#CCN(c1ccc(C(=O)NC(CCCCCC(=O)O)C(=O)O)cc1)C1CCc2cc3nc(C)[nH]c(=O)c3cc21` (stereo not drawn), with 186 °C; and `COC(=O)c1cnc(N)cn1`, with 229 to 231 °C; and `CCOC(=O)c1c[nH]c2nc(-c3ccncc3)c(F)cc2c1=O`, with 280 to 285 °C. The compound `N#Cc1ccc2[nH]c3c(ccc4c(C=O)c[nH]c43)c2c1` registered a melting point of over 250 °C. Regarding `c1ccc(Nc2ccc3nnn(Cc4ccc5ncccc5c4)c3n2)cc1`, the melting point is 237 to 239 °C. For `CC(C)(C)c1nc2c(N)nc(-c3ccncc3)nc2[nH]1` the value was 272 to 274 °C; for `FC(F)(F)c1cccc(N2CCN(c3ccc(Cl)nn3)CC2)c1`, 149 °C. For `O=C1C=CC=C2CN=CC=C12` the value was 232 to 234 °C; for `O=S(=O)(c1ccccc1)c1c[nH]c2ccc(CCO)cc12`, 55 to 60 °C; for `CCOC(=O)C(=CNc1nccs1)C(=O)c1c(Cl)cc(Cl)nc1Cl`, 126 to 127 °C. Then `N#CCCNC(=O)c1n[nH]cc1NC(=O)c1ccc2c(c1)CCO2`, with 206 to 207 °C. For `O=Cc1ccc(OC2CCCC2)c(Oc2ccc([N+](=O)[O-])cc2Br)c1`, the melting point lay within 92 to 94 °C.

For `CNC(=S)NS(=O)(=O)c1cc(CCNC(=O)c2cc(Cl)ccc2OC)ccc1OC`, the melting point was 190 to 193 °C. For `O=C(NNCCc1ccc(O)cc1)OCc1ccccc1` the value was 94 to 97 °C; for `Cc1ccc(-n2c(=O)c(N)nc3cccnc32)cc1`, over 250 °C; for `CN1C(=O)C(c2ccccc2)NC(=O)/C1=C/c1c[nH]c2ccccc12` (stereo not drawn), 120 to 123 °C. For `OCc1ccc(-c2coc(-c3cn([C@H]4CN5CCC4CC5)nn3)c2)cc1` the value was 202 °C; for `O=[N+]([O-])c1ccc(S(=O)(=O)OS(=O)(=O)c2ccc([N+](=O)[O-])cc2)cc1`, 171 to 172 °C. Then `COc1ccc(-c2ocnc2-c2cc(OC)c(OC(F)(F)F)c(OC)c2)cc1N`, with 168 to 170 °C; and `C[C@@]1(CO)CCC(=O)O1`, with 44.5 to 46.5 °C. Compound `CC1=C(C(=O)NC(C)(C)C)C(c2ccccc2Cl)C(C(=O)NC(C)C)=C(COCCn2c(C)nc3ccccc32)N1` (stereo not drawn) displayed a melting point of 191 to 193 °C. Then `NC(=O)CCNC(=O)C1CCCN1C(=O)OCc1ccccc1` (stereo not drawn), with 151 to 152 °C; and `CCCCCCCCCCCCCCCCCCN1C(=O)C2(CCCCC2)NC2(CCCCC2)C1=O`, with 39 to 40 °C. For `CCCCCCC(C)(C)c1ccc([C@@H]2CCC[C@H](O)C2)c(O)c1` (relative stereo) the value was 109 to 110 °C; for `Cc1nc(-n2cnn(Cc3ccc(F)cc3)c2=O)sc1CO`, 164 to 166 °C; for `Cc1nccc(NC(=O)C(CC2CCCC2)c2ccc(S(C)(=O)=O)c(C#N)c2)n1` (stereo not drawn), 89 to 94 °C. Take `CC1(C)C(C(=O)O)N2C(=O)C(NC(=O)COc3ccccc3)C2S1=O` (stereo not drawn): the melting point was in the range of 160 to 161 °C. Then `CCCCCCCCCCc1ccc(C(=O)N(O)CCCC(=O)O)cc1`, with 98 to 100 °C; and `CCOCn1c(-c2ccc(Cl)cc2)c(C#N)c(Cl)c1C(F)(F)F`, with 104 °C. For `CN(CCO)S(=O)(=O)c1cc(NC(=O)c2cnn3c(C(F)F)cc(-c4ccc(C(F)(F)F)cc4)nc23)c(Cl)s1` the value was 231 °C; for `O=C(O)CCCCCOc1ccccc1OCc1ccccc1`, 77 to 78 °C; for `Oc1noc2ncccc12`, 258 °C.

Compound `O=C(O)c1cccc(-c2ccc3c(c2)C(Nc2ccc(Cl)cc2Cl)CO3)c1` (stereo not drawn) yielded a melting point of 164 to 165 °C. Then `COc1ccc(S(=O)(=O)C(CCc2ccccc2)CC(=O)O)cc1OC` (stereo not drawn), with 161 to 162 °C. `COc1ccc(/C=C/C(=O)/C=C/c2ccc(OC(F)(F)F)cc2)cc1`: the melting point lay within 105 to 107 °C. Then `CCN(CC)C(=O)COc1cccc(-n2nc(-c3ccc(F)cc3)c3cccnc32)c1`, with 102 to 105 °C; and `Cc1cccnc1-c1ccc(Cl)cc1Cl`, with 38 to 42.8 °C. As for `CC(C)[C@H](NC(=O)[C@H](CC(=O)OC(C)(C)C)NC(=O)CNC(=O)c1csc(NC(=O)NCc2ccccc2)n1)C(=O)OC(C)(C)C`, the melting point lay in the range of 108 to 110 °C. In turn, `CCOC(=O)c1nn(-c2ccc(C)cc2)nc1C` gave a melting point of 47 to 48 °C.

`CC(NC(=O)Cc1cc(F)cc(F)c1)C(=O)NC1(c2ccccc2)NC(=O)Cc2ccccc21` (stereo not drawn): the melting point lay in the range of 200 to 205 °C. Turning to `O=c1c2cccc(O)c2nc(-c2ccc(OCCN3CCCCC3)cc2)n1-c1ccc(O)cc1`, the melting point fell in the range of 153 to 155 °C. For `COC(=O)c1cscc1NC(=O)NCCCCCBr` the value was 92 to 93.5 °C; for `O=C(Nc1cccc(S(=O)(=O)NC2CC2)c1)c1cnn2c(C(F)F)cc(-c3ccc(Cl)c(Cl)c3)nc12`, 254 °C; for `Cc1nc(N(C)C)sc1C(=O)c1ccc(N)c([N+](=O)[O-])c1`, 225 to 228 °C. For `CCOC(=O)c1cnn2c1c(Cl)nc1c(C)nn(C)c12` the value was 130 to 132 °C; for `CCCCOc1ccc(CCCOC(=O)NS(=O)(=O)NCCOC(C)C)c(Oc2ncc(C(F)(F)F)cc2Cl)c1`, 91.4 to 91.6 °C. Then `O=C(NCCCC(=O)N1CCCC1)c1cc(Br)no1`, with 120 to 121 °C; and `Cn1cnnc1SCC(=O)C12CC3CC(CC(C3)C1)C2`, with 134 to 136 °C; and `CC1=NCCN1c1cnc2[nH]cc(C(=O)C(C)(C)C)c2n1`, with 235 to 236 °C.

Compound `Clc1nc(Cl)nc(-c2ccccc2)n1` showed a melting point of 118 to 120 °C. For `C=CS(=O)(=O)c1ccc(C)cc1` the value was 66 °C; for `CCCN(c1ccncc1)N1C(=O)C2(Cc3ccccc3C2)c2ccccc21`, 159 to 161 °C.

Regarding `COC(=O)c1sc2c(c1N)c1ccccc1c(=O)n2-c1ccccc1`, the melting point was over 270 °C.

For the compound `CCOC(=O)[C@H](Cc1ccc(-c2c(C)n(C)c(=O)n(C)c2=O)cc1)NC(=O)c1c(Cl)cccc1Cl`, the melting point is 262 to 265 °C. For `CC(C)(C)OC(=O)N1CCN(C(=O)NNC(=O)OCc2ccccc2)CC1` the value was 194 to 196 °C; for `Clc1cc2c(oc3c(Cl)c(Br)c(Cl)c(Br)c32)c(Br)c1Br`, 288 to 290 °C. Then `Cc1cc(-c2nc(-c3ccc(OC(F)(F)F)cc3)no2)nn1Cc1ccnc(N2CCN(C3CC3)CC2)c1`, with 140 °C; and `CCCCc1nc2c(N)nc3ccccc3c2n1CCCCCCCCNS(=O)(=O)c1ccccc1`, with 143 to 144 °C; and `Cc1cccc2c(-c3ccc(Cl)cc3)nccc12`, with 122 to 124 °C. For `CC1C(=O)CCS1(=O)=O` (stereo not drawn) the value was 83 to 85 °C. For the compound `O=C1NCC(Cc2ccc(Oc3ccccc3)cc2)O1` (stereo not drawn), the melting point lay in the range of 118 to 119 °C. Then `CCC(CC)NC(=O)CCCOc1ccc2nc3[nH]c(=O)[nH]c3cc2c1`, with 312 to 314 °C; and `CCCC[C@H]1CC[C@H](c2ccc(OC(=O)[C@H]3CC[C@H](CCC)C3)cc2)CC1` (relative stereo), with 90 °C; and `Cc1ccc(CC2CCN(C(=O)C(=O)Nc3ccc4c(c3)OCC(=O)N4)CC2)cc1`, with 228 to 231 °C. For `CCc1nccc(NC(=O)Cc2ccc(Oc3ccc([N+](=O)[O-])cn3)cc2)c1Cl` the value was 128 to 131 °C; for `CN1CCN(c2ccc(C(=O)N3CCCCc4ccccc43)c(Cl)c2)CC1`, 138 to 140 °C. `COc1cc(OCCN(C)C)ccc1/C=C/c1cc(/C=C/c2ccc3cc[nH]c3c2)[nH]n1` displayed a melting point of 109 to 112 °C. For `CCOCC(=O)Nc1nc[nH]c1-c1n[nH]c(-c2ccc(-c3ccccc3)cc2)n1` the value was 280 °C; for `CC(C)C[C@H](NC(=O)CCCc1ccccc1)C(=O)N[C@@H](C(C)C)[C@@H](O)c1c(-c2ccccc2)c1=O`, 91 to 96 °C; for `COc1cc2nc(C)nc(Cl)c2cc1OCCCN1CCOCC1`, 116 to 118 °C.

`CC(OC(=O)c1ccccc1)C(N)=S` (stereo not drawn) yielded a melting point of 100 to 101 °C. Compound `O=C1Nc2ccccc2CCC1(Cl)Cl` showed a melting point of 185 to 187 °C. For `O=c1c2cc(F)c(N3CCCC3)nc2n(-c2ccccc2F)c(=O)n1O` the value was over 250 °C; for `CC(C)(C)OC(=O)N(Cc1csc2ccccc12)S(N)(=O)=O`, 103 °C; for `O=c1cc(N2CCOCC2)oc2cc(OCc3ccccc3)ccc12`, 170 to 172 °C.
